Values quoted from earlier work in paper PMC7340670, “Phase I study of TAS-115, a novel oral multi-kinase inhibitor, in patients with advanced solid tumors” (Investigational New Drugs, 2019).

How the values were obtained:
[1] = system: patients with solid tumours; parameters: method as in PMID 21606412; conditions: phase I study for solid tumours; cited from earlier work
circulating sMET = system: circulating sMET; parameters: method as in PMID 21606412, PMID 21156020, PMID 24687921; conditions: previous clinical studies; cited from earlier work

Molecule: COc1cc2nccc(Oc3ccc(NC(=O)C4(C(=O)Nc5ccc(F)cc5)CC4)cc3)c2cc1OC [cabozantinib]
- TRAE decreased appetite [1]: 48%
- TRAE diarrhea [1]: 57%
- TRAE fatigue [1]: 55%
- TRAE nausea [1]: 43%
- TRAEs neutropenia, anemia, hypophosphatemia, and thrombocytopenia [1]: not observed
- levels of circulating sMET (circulating sMET): Increased levels

Molecule: onartuzumab: agent of a previous clinical study in which increased circulating sMET was reported (ref 21)
- levels of circulating sMET (circulating sMET): Increased levels

Molecule: rilotumumab: agent of a previous clinical study in which increased circulating sMET was reported (ref 20)
- levels of circulating sMET (circulating sMET): Increased levels
